# Measurements from patent publication US9204645B2, “Insecticidal aromatic amides” (BAYER INTELLECTUAL PROPERTY GMBH, priority 2011, dated 2015).
# Like-named read-outs stand apart in the source and are kept apart here.
# Tests used:
# [1] = logP determination by HPLC on a reversed-phase column (C18), EEC Directive 79/831 Annex V.A8; type: physicochemical; conditions: HPLC-MS, C18, acetonitrile (0.1% formic acid)/water (0.09% formic acid) gradient, read-out: log P
# Method: HPLC-MS^a): mass (m/z)=462 […]. ^a) Note regarding the determination of the logP values and mass detection: The determination of the given logP values was carried out in accordance with EEC Directive 79/831 Annex V.A8 by HPLC (High Performance Liquid Chromatography) on a reversed-phase column (C18). Agilent 1100 LC system; 50*4.6 Zorbax Eclipse Plus C18 1.8 micron; mobile phase A: acetonitrile (0.1% formic acid); mobile phase B: water (0.09% formic acid); linear gradient from 10% acetonitrile to 95% acetonitrile in 4.25 min, then 95% acetonitrile for a further 1.25 min; oven temperature 55° C.; flow rate: 2.0 ml/min Mass detection is via an Agilent MSD system.
# The calibration is carried out using unbranched alkan-2-ones (having 3 to 16 carbon atoms) with known logP values (determination of the logP values by the retention times using linear interpolation between two successive alkanones). The lambda-maX values were determined in the maxima of the chromatographic signals using the UV spectra from 200 nm to 400 nm.
# [2] = system: larvae of the mustard beetle (Phaedon cochleariae); assay: Phaedon cochleariae spray test (PHAECO); type: in vivo; conditions: for inhibition at 20 g/ha / inhibition at 100 g/ha: Phaedon cochleariae, 168 h; for inhibition at 20 g/ha: read-out: % Activity; for efficacy compared to similar compounds of the prior art: PHAECO spray test
# Method: Phaedon Cochleariae—Spray Test (PHAECO)
# (§1) • Solvents: 78.0 parts by weight of acetone • 1.5 parts by weight of dimethylformamide • Emulsifier: 0.5 part by weight of alkylaryl polyglycol ether
# (§2) To produce a suitable preparation of active compound, 1 part by weight of active compound is mixed with the stated amounts of solvents and emulsifier, and the concentrate is diluted with emulsifier-containing water to the desired concentration.
# After the desired period of time, the effect in % is determined 100% means that all of the beetle larvae have been killed; 0% means that none of the beetle larvae have been killed.
# [3] = system: greenhouse red spider mite (Tetranychus urticae); assay: Tetranychus urticae spray test, OP-resistant (TETRUR), bean leaf discs; type: in vivo; conditions: for inhibition at 500 g/ha / inhibition at 100 g/ha: Tetranychus urticae, foliar, 144 h, read-out: % Activity; for efficacy compared to similar compounds of the prior art: TETRUR spray test, leaf discs
# Method: Tetranychus urticae—Spray Test; OP-resistant (TETRUR)
# as §1, §2
# Discs of bean leaves (Phaseolus vulgaris) which are infested by all stages of the greenhouse red spider mite (Tetranychus urticae) are sprayed with an active compound preparation of the desired concentration.
# After the desired period of time, the effect in % is determined. 100% means that all of the spider mites have been killed; 0% means that none of the spider mites have been killed.
# [4] = system: green peach aphid (Myzus persicae); assay: Myzus spray test (MYZUPE); type: in vivo; conditions: for inhibition at 20 g/ha / inhibition at 100 g/ha / inhibition at 500 g/ha: Myzus persicae, 144 h; for inhibition at 20 g/ha / inhibition at 100 g/ha: read-out: % Activity; for efficacy compared to similar compounds of the prior art: MYZUPE spray test
# Method: Myzus—Spray Test (MYZUPE)
# as §1, §2
# Discs of Chinese cabbage leaves (Brassica pekinensis) infested by all stages of the green peach aphid (Myzus persicae) are sprayed with an active compound preparation of the desired concentration.
# After the desired period of time, the effect in % is determined. 100% here means that all of the aphids have been killed; 0% means that no aphids have been killed.
# [5] = system: caterpillars of the armyworm (Spodoptera frugiperda); assay: Spodoptera frugiperda spray test (SPODFR); type: in vivo; conditions: 168 h, 7 dat
# Method: Spodoptera frugiperda—Spray Test (SPODFR)
# as §2, with “• Solvents: 78.0 parts by weight of acetone • 1.5 parts by weight of dimethylformamide • Emulsifier: 0.5 part by weight of alkylaryl polyglycol ether • To” for “To”
# Leaf discs of maize (Zea mays) are sprayed with an active compound preparation of the desired concentration and, after drying, populated with caterpillars of the armyworm (Spodoptera frugiperda).
# After the desired period of time, the effect in % is determined. 100% means that all of the caterpillars have been killed; 0% means that none of the caterpillars have been killed.
compound,measurement,setting,value
Cn1nc(C(F)(F)C(F)(F)F)c([N+](=O)[O-])c1C(=O)O [1-Methyl-4-nitro-3-(pentafluoroethyl)-1H-pyrazole-5-carboxylic acid],chromatographic logP,[1],1.41
"CCC(=O)NC(C)c1cc(NC(=O)c2c(C(F)(F)F)c(C(F)(F)C(F)(F)F)nn2C)ccc1Cl (stereo not shown) [Am-28, N-{4-chloro-3-[1-(propionylamino)ethyl]phenyl}-1-methyl-3-(pentafluoroethyl)-4-(trifluoromethyl)-1H-pyrazole-5-carboxamide]",chromatographic logP,[1],3.55
"CCCC(=O)NCc1cc(NC(=O)c2c(C(F)(F)F)c(C(F)(F)C(F)(F)F)nn2C)ccc1Cl [Am-41, N-{3-[(butyrylamino)methyl]-4-chlorophenyl}-1-methyl-3-(pentafluoroethyl)-4-(trifluoromethyl)-1H-pyrazole-5-carboxamide]",chromatographic logP,[1],3.7
CCC(=O)NCc1cc(N(C)C(=O)c2c(C(F)(F)F)c(C(F)(F)C(F)(F)F)nn2C)ccc1F [Example 1],inhibition at 20 g/ha,[2],100%
same,inhibition at 500 g/ha,[3],100%
same,inhibition at 20 g/ha,[4],90%
CCN(C(=O)c1c(C(F)(F)F)c(C(F)(F)C(F)(F)F)nn1C)c1ccc(F)c(CNC(=O)C2CC2)c1 [Example 2],efficacy compared to similar compounds of the prior art,[3],superior efficacy
same,inhibition at 100 g/ha,[3],100%
same,efficacy compared to similar compounds of the prior art,[4],superior efficacy
same,inhibition at 100 g/ha,[4],90%
CCC(=O)NCc1cc(N(CC)C(=O)c2c(C(F)(F)F)c(C(F)(F)C(F)(F)F)nn2C)ccc1F [Example 3],efficacy compared to similar compounds of the prior art,[2],superior efficacy
same,inhibition at 20 g/ha,"[2]; PHAECO, 20 g/ha, 7 dat",100%
same,efficacy compared to similar compounds of the prior art,[3],superior efficacy
same,inhibition at 500 g/ha,"[3]; TETRUR, 500 g/ha, 6 dat",100%
same,efficacy compared to similar compounds of the prior art,[4],superior efficacy
same,inhibition at 20 g/ha,"[4]; MYZUPE, 20 g/ha, 6 dat",100%
CCC(=O)NCc1cc(NC(=O)c2c(C(F)(F)F)c(C(F)(F)C(F)(F)F)nn2C)ccc1F [Example 4],efficacy compared to similar compounds of the prior art,[2],superior efficacy
same,inhibition at 20 g/ha,"[2]; PHAECO, 20 g/ha, 7 dat",100%
same,efficacy compared to similar compounds of the prior art,[3],superior efficacy
same,inhibition at 500 g/ha,"[3]; TETRUR, 500 g/ha, 6 dat",100%
same,efficacy compared to similar compounds of the prior art,[4],superior efficacy
same,inhibition at 500 g/ha,"[4]; MYZUPE, 6 dat",100%
CCC(=O)NCc1c(F)ccc(NC(=O)c2c(C(F)(F)F)c(C(F)(F)C(F)(F)F)nn2C)c1F [Example 6],efficacy compared to similar compounds of the prior art,[2],superior efficacy
same,inhibition at 100 g/ha,"[2]; PHAECO, 7 dat",100%
same,inhibition at 100 g/ha,[5],100%
"CC(=O)NCc1c(F)ccc(N(C)C(=O)c2c(C(F)(F)F)c(C(F)(F)C(F)(F)F)nn2C)c1F [Example 7, N-[3-(acetamidomethyl)-2,4-difluorophenyl]-N,1-dimethyl-3-(pentafluoroethyl)-4-(trifluoromethyl)-1H-pyrazole-5-carboxamide]",chromatographic logP,[1],2.85
same,inhibition at 100 g/ha,"[2]; PHAECO, 7 dat",100%
same,inhibition at 500 g/ha,"[3]; TETRUR, 500 g/ha, 6 dat",100%
same,inhibition at 500 g/ha,"[4]; MYZUPE, 6 dat",100%
CC(=O)NCc1cc(N(C)C(=O)c2c(C(F)(F)F)c(C(F)(F)C(F)(F)F)nn2C)ccc1F [Example 8],inhibition at 500 g/ha,"[3]; TETRUR, 500 g/ha, 6 dat",100%
same,inhibition at 500 g/ha,"[4]; MYZUPE, 6 dat",100%
CCN(C(=O)c1c(C(F)(F)F)c(C(F)(F)C(F)(F)F)nn1C)c1ccc(F)c(CNC(C)=O)c1 [Example 9],efficacy compared to similar compounds of the prior art,[3],superior efficacy
same,inhibition at 500 g/ha,"[3]; TETRUR, 500 g/ha, 6 dat",100%
same,efficacy compared to similar compounds of the prior art,[4],superior efficacy
same,inhibition at 20 g/ha,"[4]; MYZUPE, 20 g/ha, 6 dat",100%
CN(C(=O)c1c(C(F)(F)F)c(C(F)(F)C(F)(F)F)nn1C)c1cccc(CNC(=O)C2CC2)c1 [Example 10],inhibition at 500 g/ha,"[3]; TETRUR, 500 g/ha, 6 dat",100%
same,inhibition at 100 g/ha,"[4]; MYZUPE, 100 g/ha, 6 dat",100%
CC(=O)NCc1c(F)ccc(NC(=O)c2c(C(F)(F)F)c(C(F)(F)C(F)(F)F)nn2C)c1F [Example 11],inhibition at 100 g/ha,"[2]; PHAECO, 7 dat",100%
same,inhibition at 500 g/ha,"[3]; TETRUR, 500 g/ha, 6 dat",90%
CCC(=O)NCc1cc(NC(=O)c2c(C(F)(F)F)c(C(F)(F)F)nn2C)ccc1F [Example 201],efficacy compared to similar compounds of the prior art,[3],superior efficacy
same,inhibition at 100 g/ha,"[3]; TETRUR, 100 g/ha, 6 dat",100%
same,efficacy compared to similar compounds of the prior art,[4],superior efficacy
same,inhibition at 20 g/ha,"[4]; MYZUPE, 20 g/ha, 6 dat",100%
Cn1nc(C(F)(F)F)c(C(F)(F)F)c1C(=O)Nc1ccc(F)c(CNC(=O)C2CC2)c1 [Example 298],efficacy compared to similar compounds of the prior art,[4],superior efficacy
same,inhibition at 20 g/ha,"[4]; MYZUPE, 20 g/ha, 6 dat",90%
CC(=O)NCc1cc(NC(=O)c2c(Br)c(C(F)(F)C(F)(F)F)nn2C)ccc1F [Example 926],efficacy compared to similar compounds of the prior art,[3],superior efficacy
same,inhibition at 100 g/ha,"[3]; TETRUR, 100 g/ha, 6 dat",90%
Cn1nc(C(F)(F)C(F)(F)F)c(Br)c1C(=O)Nc1ccc(F)c(CNC(=O)C2CC2)c1 [Example 933],efficacy compared to similar compounds of the prior art,[2],superior efficacy
same,inhibition at 20 g/ha,"[2]; PHAECO, 20 g/ha, 7 dat",100%
same,efficacy compared to similar compounds of the prior art,[3],superior efficacy
same,inhibition at 100 g/ha,"[3]; TETRUR, 100 g/ha, 6 dat",90%
CC(=O)NCc1cc(NC(=O)c2c(Cl)c(C(F)(F)F)nn2C)ccc1F [Example 937],efficacy compared to similar compounds of the prior art,[4],superior efficacy
same,inhibition at 100 g/ha,"[4]; MYZUPE, 100 g/ha, 6 dat",90%
"Cn1nc(C(F)(F)C(F)(F)F)c(C(F)(F)F)c1C(=O)Nc1cccc(C(=O)NC2CC2)c1 [Example Ik-13, reference compound]",inhibition at 500 g/ha,"[3]; TETRUR, 500 g/ha, 6 dat",0%
same,inhibition at 500 g/ha,"[4]; MYZUPE, 6 dat",0%
"Cn1nc(C(F)(F)F)c(Cl)c1C(=O)Nc1ccc(Cl)c(C(=O)NC2CC2)c1 [Example Ik-18, reference compound]",inhibition at 100 g/ha,"[4]; MYZUPE, 100 g/ha, 6 dat",0%
"Cn1nc(C(F)(F)C(F)(F)F)c(Br)c1C(=O)Nc1ccc(Cl)c(C(=O)NC2CC2)c1 [Example Ik-26, reference compound]",inhibition at 20 g/ha,"[2]; PHAECO, 20 g/ha, 7 dat",0%
same,inhibition at 100 g/ha,"[3]; TETRUR, 100 g/ha, 6 dat",0%
"CC(C)NC(=O)c1cc(NC(=O)c2c(Br)c(C(F)(F)C(F)(F)F)nn2C)ccc1Cl [Example Ik-27, reference compound]",inhibition at 100 g/ha,"[3]; TETRUR, 100 g/ha, 6 dat",0%
"CCCNC(=O)c1cc(NC(=O)c2c(C(F)(F)F)c(C(F)(F)C(F)(F)F)nn2C)ccc1Cl [Example Ik-30, reference compound]",inhibition at 20 g/ha,"[4]; MYZUPE, 20 g/ha, 6 dat",0%
"CC(C)NC(=O)c1c(F)ccc(NC(=O)c2c(C(F)(F)F)c(C(F)(F)C(F)(F)F)nn2C)c1F [Example Ik-74, reference compound]",inhibition at 100 g/ha,"[2]; PHAECO, 7 dat",33%
same,inhibition at 500 g/ha,"[3]; TETRUR, 500 g/ha, 6 dat",0%
same,inhibition at 500 g/ha,"[4]; MYZUPE, 6 dat",0%
same,inhibition at 100 g/ha,[5],0%
"CC(C)NC(=O)c1cc(NC(=O)c2c(C(F)(F)F)c(C(F)(F)C(F)(F)F)nn2C)ccc1F [Example Ik-75, reference compound]",inhibition at 20 g/ha,"[2]; PHAECO, 20 g/ha, 7 dat",0%
same,inhibition at 100 g/ha,"[3]; TETRUR, 100 g/ha, 6 dat",0%
same,inhibition at 500 g/ha,"[3]; TETRUR, 500 g/ha, 6 dat",0%
same,inhibition at 100 g/ha,"[4]; MYZUPE, 100 g/ha, 6 dat",0%
same,inhibition at 500 g/ha,"[4]; MYZUPE, 6 dat",0%
"CN(C(=O)c1c(C(F)(F)F)c(C(F)(F)C(F)(F)F)nn1C)c1ccc(Cl)c(C(=O)NC2CC2)c1 [Example Ik-132, reference compound]",inhibition at 100 g/ha,"[4]; MYZUPE, 100 g/ha, 6 dat",0%
"Cn1nc(C(F)(F)C(F)(F)F)c(C(F)(F)F)c1C(=O)Nc1ccc(F)c(C(=O)NC2CC2)c1 [Example Ik-155, reference compound]",inhibition at 100 g/ha,"[3]; TETRUR, 100 g/ha, 6 dat",0%
same,inhibition at 100 g/ha,"[4]; MYZUPE, 100 g/ha, 6 dat",0%
"Cn1nc(C(F)(F)F)c(C(F)(F)F)c1C(=O)Nc1ccc(Cl)c(C(=O)NC2CC2)c1 [Example Ik-195, reference compound]",inhibition at 20 g/ha,"[4]; MYZUPE, 20 g/ha, 6 dat",0%
